Here are results for 20 molecules from patent publication US20220202948A1, “Agent for Eliminating Pluripotent Stem Cells” (Sumitomo Dainippon Pharma Co., Ltd., priority 2019, published 2022).

Square brackets hold non-standard residues; d marks the D form. Peptide text beside a SMILES is read from it. * marks the point of attachment. Dolaproine = CO[C@@H]([C@@H]1CCCN1)[C@@H](C)C(=O)O; Dil = CC[C@H](C)[C@H](NC)[C@@H](CC(=O)O)OC; X1 = C[C@@H](N*)[C@@H](O)c1ccccc1; NMeV = CN[C@H](C(=O)O)C(C)C Where only a bound is given, the exact number is not on record here.

The nature of data set [1]: Membrane permeability test, parallel artificial membrane permeability assay (PAMPA). It is filed as in vitro ADME. Conditions: pH 7.4, 37° C.; for Papp at 4 h: read-out: permeability coefficient Pe (pH 7.4). As for the experimental part: By the parallel artificial membrane permeability assay (PAMPA), the membrane permeability of compounds of Examples was examined as follows: To the donor plate, System solution (pION inc.) and GIT Lipid-0 (pION inc.) were added in an amount of 200 μL and 4 μL for each well, respectively. To the acceptor plate, Acceptor Sink Buffer (pION inc.) was added in an amount of 200 μL. Both plates were superposed and incubated at 37° C. for 4 hours, and then, UVs in the solutions on the side of acceptor and on the side of donor were measured with a UV plate reader (190 to 500 nm). Compounds with poor UV absorption were measured by LC-MS. The permeability coefficient Pe (10^−6 cm/sec) of the drug was calculated by the following formula.

The target of data set [2] is T1, porcine tubulin (Sus scrofa, UniProt P02550+P02554).
T1 construct: purchased Cytoskeleton Inc. BK006P
T1 sequence (P02550 whole entry): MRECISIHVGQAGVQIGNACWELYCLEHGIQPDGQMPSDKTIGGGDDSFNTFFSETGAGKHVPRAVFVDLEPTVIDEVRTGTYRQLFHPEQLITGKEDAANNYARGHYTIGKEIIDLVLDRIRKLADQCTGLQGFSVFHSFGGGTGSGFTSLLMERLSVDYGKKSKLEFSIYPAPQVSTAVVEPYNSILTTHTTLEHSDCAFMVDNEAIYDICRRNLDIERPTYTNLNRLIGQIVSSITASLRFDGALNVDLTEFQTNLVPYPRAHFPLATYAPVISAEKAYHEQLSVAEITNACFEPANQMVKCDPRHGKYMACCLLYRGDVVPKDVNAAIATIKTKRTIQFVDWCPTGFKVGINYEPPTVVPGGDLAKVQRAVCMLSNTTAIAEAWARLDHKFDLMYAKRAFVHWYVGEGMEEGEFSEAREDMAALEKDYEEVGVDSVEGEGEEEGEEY
T1 sequence (P02554 whole entry): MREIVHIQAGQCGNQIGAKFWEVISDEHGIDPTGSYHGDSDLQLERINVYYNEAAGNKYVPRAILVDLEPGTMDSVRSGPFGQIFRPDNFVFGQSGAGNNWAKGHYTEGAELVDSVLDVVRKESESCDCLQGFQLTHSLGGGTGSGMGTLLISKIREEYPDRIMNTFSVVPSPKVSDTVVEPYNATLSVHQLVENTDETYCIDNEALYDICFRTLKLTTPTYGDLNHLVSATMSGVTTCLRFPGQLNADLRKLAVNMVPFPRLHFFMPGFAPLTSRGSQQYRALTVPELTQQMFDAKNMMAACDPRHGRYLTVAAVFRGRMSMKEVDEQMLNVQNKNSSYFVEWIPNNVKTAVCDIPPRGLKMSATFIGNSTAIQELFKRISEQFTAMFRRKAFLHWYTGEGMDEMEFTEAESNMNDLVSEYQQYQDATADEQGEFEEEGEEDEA
The experiment in a line: Activity for inhibiting microtubule polymerization using porcine tubulins (1), tubulin polymerization inhibition assay kit. The format is biochemical. Conditions: compound 0.91 μM, absorbance at 340 nm at 37° C., FIG. 1. As for the experimental part: (§1) Using a tubulin polymerization inhibition assay kit (catalog number: BK006P) purchased from Cytoskeleton Inc., the polymerization inhibitory activity of compounds of Examples with a concentration of 0.91 μM was evaluated in accordance with the protocol appended to the kit. In summary of the protocol, to a 96 well microplate, 80 mM PIPES pH 6.9, 2 mM MgCl, 0.5 mM EGTA and 5% DMSO buffered solution of the compound to be evaluated was added in an amount of 10 μL for each well, and to these wells, 3 mg/mL porcine tubulin 80 mM PIPES pH 6.9, 2 mM MgCl, 0.5 mM EGTA, 1 mM GTP and 10.2% glycerol solution was added in an amount of 100 μL for each well. In order to examine a state in which tubulins polymerize over time, the absorbance at 340 nm was measured at 37° C., using a microplate reader. As the polymerization of tubulins progresses, the absorbance at 340 nm rises.

The target in data set [3] is T1, porcine tubulin. The experiment in a line: Activity for inhibiting microtubule polymerization using porcine tubulins (2), microtubule polymerization rate. It is filed as biochemical. Conditions: compound 9.1 μM, 60 minutes after assay initiation, relative to wells without compound; lower = stronger inhibition. On the procedure:
as §1, with “Examples at” for “Examples with”, “of 9.1” for “of 0.91”, “kit. To” for “kit. In summary of the protocol, to”
The tubulin polymerization inhibitory activity was evaluated based on the proportion of polymerized tubulins 60 minutes after the assay initiation. Specifically, the microtubule polymerization rate (%) was calculated by dividing the absorbance of tubulins that had polymerized at wells to which the compound had been added by the absorbance of tubulins that had polymerized at wells to which the compound had not been added, and multiplying the obtained value by 100.

With `CN[C@H](C(=O)N[C@H](C(=O)N(C)[C@H](/C=C(\C)C(=O)N[C@H](CCC(=O)O)C(=O)O)C(C)C)C(C)(C)C)C(C)(C)c1cn(C)c2ccccc12` [Example 1, N,β,β-tetramethyl-L-tryptophyl-N-[(3S,4E)-6-{[(1R)-1,3-dicarboxypropyl]amino}-2,5-dimethyl-6-oxohex-4-en-3-yl]-N,3-dimethyl-L-valinamide], the Papp at 4 h in data set [1] was < 0.1 ×10⁻⁶ cm/s. Further, the “activity for inhibiting microtubule polymerization” value on porcine tubulin [2] is listed as “comparable activities for inhibiting microtubule polymerization”.

Take `CN[C@H](C(=O)N[C@H](C(=O)N(C)[C@H](/C=C(\C)C(=O)N[C@H](CC(=O)O)C(=O)O)C(C)C)C(C)(C)C)C(C)(C)c1cn(C)c2ccccc12` [Example 5]: in data set [1], the Papp at 4 h is < 0.1 ×10⁻⁶ cm/s.

Consider `CN[C@H](C(=O)N[C@H](C(=O)N(C)[C@H](/C=C(\C)C(=O)N[C@@H](CCC(=O)NCCN1C(=O)CC(SC[C@H](N)C(=O)O)C1=O)C(=O)O)C(C)C)C(C)(C)C)C(C)(C)c1cn(C)c2ccccc12` (stereo partly drawn) [Example 49], for which the “Microtubule polymerization rate (%)” value on porcine tubulin [3] is given as 0%. Besides, the Papp at 4 h in data set [1] was < 0.1 ×10⁻⁶ cm/s.

Turning to `CN[C@H](C(=O)N[C@H](C(=O)N(C)[C@H](/C=C(\C)C(=O)N[C@@H](CCC(=O)O)C(=O)O)C(C)C)C(C)(C)C)C(C)(C)c1cn(C)c2ccccc12` [Example 6], the “Microtubule polymerization rate (%)” value at porcine tubulin [3] was found to be 4%. Further, in data set [1], the Papp at 4 h is < 0.1 ×10⁻⁶ cm/s.

Regarding `CN[C@H](C(=O)N[C@H](C(=O)N(C)[C@H](/C=C(\C)C(=O)N[C@H](CCC(=O)O)C(=O)O)C(C)C)C(C)(C)C)C(C)(C)c1ccccc1` [Example 2, N,β,β-Trimethyl-L-phenylalanyl-N-[(3S,4E)-6-{[(1R)-1,3-dicarboxypropyl]amino}-2,5-dimethyl-6-oxohex-4-en-3-yl]-N,3-dimethyl-L-valinamide], on porcine tubulin [3], the “Microtubule polymerization rate (%)” value was found to be 2%. Further, the Papp at 4 h in data set [1] was < 0.1 ×10⁻⁶ cm/s.

Take `CN[C@H](C(=O)N[C@H](C(=O)N(C)[C@H](/C=C(\C)C(=O)O)C(C)C)C(C)(C)C)C(C)(C)c1cn(C)c2ccccc12` [Hemiasterlin, reference compound]: the “Microtubule polymerization rate (%)” value on porcine tubulin [3] came out at 0%. For the same molecule, the Papp at 4 h in data set [1] was found to be 25.6 ×10⁻⁶ cm/s. Also, the “activity for inhibiting microtubule polymerization” value at porcine tubulin [2] is recorded as “comparable activities for inhibiting microtubule polymerization”.

As to `CN[C@H](C(=O)N[C@H](C(=O)N(C)[C@H](/C=C(\C)C(=O)N[C@H](CCC(=O)NCCCCN1C(=O)CC(SC[C@H](N)C(=O)O)C1=O)C(=O)O)C(C)C)C(C)(C)C)C(C)(C)c1ccccc1` (stereo partly drawn) [Example 48], the “Microtubule polymerization rate (%)” value at porcine tubulin [3] is 0%. In data set [1], the Papp at 4 h stood at 5.8 ×10⁻⁶ cm/s.

As to `C/C(=C\[C@H](C(C)C)N(C)C(=O)[C@@H](NC(=O)[C@H]1CCCCN1C(C)C)C(C)(C)C)C(=O)N[C@H](CCC(=O)O)C(=O)O` [Example 3, N-[(2E,4S)-2,5-Dimethyl-4-(methyl {3-methyl-N-[(2R)-1-(propan-2-yl)piperidine-2-carbonyl]-L-valyl}amino)hex-2-enoyl]-D-glutamic acid], the “Microtubule polymerization rate (%)” value on porcine tubulin [3] amounted to 5%. Besides, the Papp at 4 h in data set [1] was < 0.1 ×10⁻⁶ cm/s.

Consider `CN[C@H](C(=O)N[C@H](C(=O)N(C)[C@H](/C=C(\C)C(=O)N[C@H](CCCCN)C(=O)O)C(C)C)C(C)(C)C)C(C)(C)c1cn(C)c2ccccc12` [Example 7], for which, in data set [1], the Papp at 4 h worked out at 0.8 ×10⁻⁶ cm/s.

Turning to `CN[C@H](C(=O)N[C@H](C(=O)N(C)[C@H](/C=C(\C)C(=O)N[C@H](CCC(=O)O)C(=O)NCCN1C(=O)CC(SC[C@H](N)C(=O)O)C1=O)C(C)C)C(C)(C)C)C(C)(C)c1ccccc1` (stereo partly drawn) [Example 46], the “Microtubule polymerization rate (%)” value at porcine tubulin [3] is reported as 0%. Besides, the Papp at 4 h in data set [1] amounted to 3.5 ×10⁻⁶ cm/s.

Take `CN[C@H](C(=O)N[C@H](C(=O)N(C)[C@H](/C=C(\C)C(=O)N[C@@H](CCC(=O)O)C(=O)O)C(C)C)C(C)(C)C)C(C)(C)c1ccccc1` [Example 9]: the “Microtubule polymerization rate (%)” value on porcine tubulin [3] is listed as 5%. Moreover, the Papp at 4 h in data set [1] was < 0.1 ×10⁻⁶ cm/s.

In the case of `CN[C@H](C(=O)N[C@H](C(=O)N(C)[C@H](/C=C(\C)C(=O)N[C@H](CCC(=O)NCCCN1C(=O)CC(SC[C@H](N)C(=O)O)C1=O)C(=O)O)C(C)C)C(C)(C)C)C(C)(C)c1cn(C)c2ccccc12` (stereo partly drawn) [Example 54], the “Microtubule polymerization rate (%)” value on porcine tubulin [3] is on record as 0%. Besides, in data set [1], the Papp at 4 h is < 0.1 ×10⁻⁶ cm/s.

In the case of `CN[C@H](C(=O)N[C@H](C(=O)N(C)[C@H](/C=C(\C)C(=O)N[C@@H](CCC(=O)NCCN1C(=O)CC(SC[C@H](N)C(=O)O)C1=O)C(=O)O)C(C)C)C(C)(C)C)C(C)(C)c1ccccc1` (stereo partly drawn) [Example 42], at porcine tubulin [3], the “Microtubule polymerization rate (%)” value came out at 0%. Further, in data set [1], the Papp at 4 h stood at 2.2 ×10⁻⁶ cm/s.

Regarding `CC[C@H](C)[C@@H]([C@@H](CC(=O)N1CCC[C@H]1[C@H](OC)[C@@H](C)C(=O)N[C@H](C)[C@@H](O)c1ccccc1)OC)N(C)C(=O)[C@@H](NC(=O)[C@@H](NC)C(C)C)C(C)C` [MMAE, monomethyl auristatin, reference compound] (H-[NMeV]V[Dil][Dolaproine]-X1), the “permeability coefficient Pe (pH 7.4)” value in data set [1] (4 hours) was 15.3 10^−6 cm/sec. The “activity for inhibiting microtubule polymerization” value on porcine tubulin [2] is “comparable activities for inhibiting microtubule polymerization”.

Take `CN[C@H](C(=O)N[C@H](C(=O)N(C)[C@H](/C=C(\C)C(=O)N[C@H](CC(=O)NCCN1C(=O)CC(SC[C@H](N)C(=O)O)C1=O)C(=O)O)C(C)C)C(C)(C)C)C(C)(C)c1ccccc1` (stereo partly drawn) [Example 40]: in data set [1], the Papp at 4 h was 3 ×10⁻⁶ cm/s.

Regarding `CN[C@H](C(=O)N[C@H](C(=O)N(C)[C@H](/C=C(\C)C(=O)N[C@H](CCC(=O)NCCN1C(=O)CC(SC[C@H](N)C(=O)O)C1=O)C(=O)O)C(C)C)C(C)(C)C)C(C)(C)c1ccccc1` (stereo partly drawn) [Example 37, (3S,6S,9S,10E,14R)-14-(3-{[2-(3-{[(2R)-2-Amino-2-carboxyethyl]sulfanyl}-2,5-dioxopyrrolidin-1-yl)ethyl]amino}-3-oxopropyl)-6-tert-butyl-8,11-dimethyl-4,7,12-trioxo-3-(2-phenylpropan-2-yl)-9-(propan-2-yl)-2,5,8,13-tetraazapentadec-10-en-15-oic acid], the “Microtubule polymerization rate (%)” value on porcine tubulin [3] came out at 9%. The Papp at 4 h in data set [1] came out at 0.2 ×10⁻⁶ cm/s.

On to `CN[C@H](C(=O)N[C@H](C(=O)N(C)[C@H](/C=C(\C)C(=O)NCCCC[C@@H](NC(=O)CCCN1C(=O)CC(SC[C@H](N)C(=O)O)C1=O)C(=O)O)C(C)C)C(C)(C)C)C(C)(C)c1cn(C)c2ccccc12` (stereo partly drawn) [Example 39], for which the “Microtubule polymerization rate (%)” value on porcine tubulin [3] was 2%. The Papp at 4 h in data set [1] was determined as 1.4 ×10⁻⁶ cm/s.

On to `CN[C@H](C(=O)N[C@H](C(=O)N(C)[C@H](/C=C(\C)C(=O)NCCCC[C@@H](NC(=O)CCCN1C(=O)CC(SC[C@H](N)C(=O)O)C1=O)C(=O)O)C(C)C)C(C)(C)C)C(C)(C)c1ccccc1` (stereo partly drawn) [Example 58], for which, at porcine tubulin [3], the “Microtubule polymerization rate (%)” value was 0%. Also, in data set [1], the Papp at 4 h stood at 3 ×10⁻⁶ cm/s.

`CN[C@H](C(=O)N[C@H](C(=O)N(C)[C@H](/C=C(\C)C(=O)N[C@@H](CCCCNC(=O)CCCN1C(=O)CC(SC[C@H](N)C(=O)O)C1=O)C(=O)O)C(C)C)C(C)(C)C)C(C)(C)c1cn(C)c2ccccc12` (stereo partly drawn) [Example 57]: the Papp at 4 h in data set [1] was < 0.1 ×10⁻⁶ cm/s.

In the case of `CN[C@H](C(=O)N[C@H](C(=O)N(C)[C@H](/C=C(\C)C(=O)N[C@@H](CC(=O)NCCN1C(=O)CC(SC[C@H](N)C(=O)O)C1=O)C(=O)O)C(C)C)C(C)(C)C)C(C)(C)c1ccccc1` (stereo partly drawn) [Example 41], in data set [1], the Papp at 4 h is < 0.1 ×10⁻⁶ cm/s.
